We go through six compounds from ChEMBL document CHEMBL4732227, “Discovery of a novel potent cytochrome P450 CYP4Z1 inhibitor” (Eur J Med Chem, 2021).

Data set [1] concerns the target T1, Cytochrome P450 4Z1 (Homo sapiens, UniProt Q86W10).
T1 sequence (Q86W10 whole entry): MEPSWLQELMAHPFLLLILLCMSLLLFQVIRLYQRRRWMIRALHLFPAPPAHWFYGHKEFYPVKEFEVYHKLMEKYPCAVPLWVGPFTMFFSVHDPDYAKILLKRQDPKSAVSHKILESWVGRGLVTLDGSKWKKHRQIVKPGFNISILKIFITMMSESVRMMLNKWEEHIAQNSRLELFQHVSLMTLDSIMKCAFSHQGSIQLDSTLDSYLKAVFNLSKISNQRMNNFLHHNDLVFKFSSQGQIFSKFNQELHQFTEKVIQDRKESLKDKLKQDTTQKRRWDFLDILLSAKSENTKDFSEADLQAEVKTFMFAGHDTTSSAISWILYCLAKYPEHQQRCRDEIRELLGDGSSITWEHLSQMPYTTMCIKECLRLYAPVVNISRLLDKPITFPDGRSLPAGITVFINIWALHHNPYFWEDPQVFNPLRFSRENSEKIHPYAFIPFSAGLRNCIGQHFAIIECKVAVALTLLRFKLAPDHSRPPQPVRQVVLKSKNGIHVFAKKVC
Briefly: Inhibition of human CYP4Z1 expressed in permeabilized fission AZ3 yeast cells at 100 nM using luciferin-3FBE as substrate incubated for 3 hrs by luminescence based enzyme bag assay relative to control. The format is cell-based.

For data set [2], the target named is T1, Cytochrome P450 4Z1. Briefly: Inhibition of human CYP4Z1 overexpressed in human MCF7 cells at 1 uM using luciferin-3FBE as substrate incubated for 24 hrs followed by substrate addition by luminescence based assay relative to control. The format is cell-based.
Data set [3] concerns the target T1, Cytochrome P450 4Z1. Put plainly: Inhibition of human CYP4Z1 overexpressed in human MCF7 cells using luciferin-3FBE as substrate incubated for 24 hrs followed by substrate addition by luminescence based assay. It is filed as cell-based.
Data set [4] deals with T1, Cytochrome P450 4Z1. Briefly: Inhibition of human CYP4Z1 overexpressed in human MCF7 cells using luciferin-BE as substrate incubated for 24 hrs followed by substrate addition by luminescence based assay. The format is cell-based.
The target of a further data set is T2, CYP1A2 (Homo sapiens, UniProt P05177).
T2 sequence (P05177 whole entry): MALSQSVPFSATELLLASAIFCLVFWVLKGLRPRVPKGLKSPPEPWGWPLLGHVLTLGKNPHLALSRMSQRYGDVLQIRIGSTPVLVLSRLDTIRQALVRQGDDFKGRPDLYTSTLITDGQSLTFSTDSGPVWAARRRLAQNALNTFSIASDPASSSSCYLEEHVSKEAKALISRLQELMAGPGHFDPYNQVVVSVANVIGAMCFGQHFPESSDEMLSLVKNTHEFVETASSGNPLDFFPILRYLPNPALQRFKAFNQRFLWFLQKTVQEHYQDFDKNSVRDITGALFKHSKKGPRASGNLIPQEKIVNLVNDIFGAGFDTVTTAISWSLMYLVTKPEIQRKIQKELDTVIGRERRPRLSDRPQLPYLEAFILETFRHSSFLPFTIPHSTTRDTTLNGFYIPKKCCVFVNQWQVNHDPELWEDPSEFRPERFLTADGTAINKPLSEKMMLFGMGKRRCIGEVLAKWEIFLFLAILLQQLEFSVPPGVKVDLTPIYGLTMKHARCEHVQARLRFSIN
Briefly: Inhibition of human CYP1A2 at 1 uM using luciferin-ME as substrate by enzyme bag based one point inhibition assay relative to control. It is filed as ADME. To be noted: enzyme bags, probe luciferin-ME.

The target in the next data set is CYP2C9 (Homo sapiens, UniProt P11712). Put plainly: Inhibition of human CYP2C9 at 1 uM using luciferin-H as substrate by enzyme bag based one point inhibition assay relative to control. The format is ADME. To be noted: enzyme bags, probe luciferin-H.
Sequence of CYP2C9 (P11712 whole entry): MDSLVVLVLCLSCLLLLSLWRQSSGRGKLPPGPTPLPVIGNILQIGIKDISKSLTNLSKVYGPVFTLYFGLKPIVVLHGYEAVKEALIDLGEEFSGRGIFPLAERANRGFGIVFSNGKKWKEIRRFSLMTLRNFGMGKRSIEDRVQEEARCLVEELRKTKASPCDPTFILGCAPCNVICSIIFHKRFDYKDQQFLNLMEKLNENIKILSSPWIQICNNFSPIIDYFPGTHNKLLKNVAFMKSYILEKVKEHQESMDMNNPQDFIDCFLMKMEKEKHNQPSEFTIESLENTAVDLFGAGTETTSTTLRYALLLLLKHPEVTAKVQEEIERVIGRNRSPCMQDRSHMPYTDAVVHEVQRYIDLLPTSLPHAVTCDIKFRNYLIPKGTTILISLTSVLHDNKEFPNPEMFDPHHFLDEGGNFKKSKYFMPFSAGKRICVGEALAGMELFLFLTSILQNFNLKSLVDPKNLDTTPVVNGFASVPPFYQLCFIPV
In another data set the target is CYP2C19 (Homo sapiens, UniProt P33261). Put plainly: Inhibition of human CYP2C19 at 1 uM using luciferin-HEGE as substrate by enzyme bag based one point inhibition assay relative to control. It is filed as ADME. To be noted: enzyme bags, probe luciferin-HEGE.
Sequence of CYP2C19 (P33261 whole entry): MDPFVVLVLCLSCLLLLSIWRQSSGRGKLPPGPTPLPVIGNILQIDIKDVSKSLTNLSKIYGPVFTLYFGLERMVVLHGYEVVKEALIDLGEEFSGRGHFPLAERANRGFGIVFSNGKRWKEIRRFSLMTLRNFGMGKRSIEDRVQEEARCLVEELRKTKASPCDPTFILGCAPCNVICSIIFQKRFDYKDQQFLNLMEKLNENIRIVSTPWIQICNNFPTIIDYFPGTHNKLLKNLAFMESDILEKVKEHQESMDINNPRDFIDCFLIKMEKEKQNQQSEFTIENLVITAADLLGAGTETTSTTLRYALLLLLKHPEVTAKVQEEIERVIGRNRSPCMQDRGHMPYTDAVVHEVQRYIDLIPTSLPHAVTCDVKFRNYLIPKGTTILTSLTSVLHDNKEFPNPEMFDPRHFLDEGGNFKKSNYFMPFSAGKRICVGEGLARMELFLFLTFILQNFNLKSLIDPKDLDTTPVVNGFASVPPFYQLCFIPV
In another data set the target is CYP2D6 (Homo sapiens, UniProt P10635). Put plainly: Inhibition of human CYP2D6 at 1 uM using luciferin-MEEGE as substrate by enzyme bag based one point inhibition assay relative to control. It is filed as ADME. To be noted: enzyme bags, probe luciferin-MEEGE.
Sequence of CYP2D6 (P10635 whole entry): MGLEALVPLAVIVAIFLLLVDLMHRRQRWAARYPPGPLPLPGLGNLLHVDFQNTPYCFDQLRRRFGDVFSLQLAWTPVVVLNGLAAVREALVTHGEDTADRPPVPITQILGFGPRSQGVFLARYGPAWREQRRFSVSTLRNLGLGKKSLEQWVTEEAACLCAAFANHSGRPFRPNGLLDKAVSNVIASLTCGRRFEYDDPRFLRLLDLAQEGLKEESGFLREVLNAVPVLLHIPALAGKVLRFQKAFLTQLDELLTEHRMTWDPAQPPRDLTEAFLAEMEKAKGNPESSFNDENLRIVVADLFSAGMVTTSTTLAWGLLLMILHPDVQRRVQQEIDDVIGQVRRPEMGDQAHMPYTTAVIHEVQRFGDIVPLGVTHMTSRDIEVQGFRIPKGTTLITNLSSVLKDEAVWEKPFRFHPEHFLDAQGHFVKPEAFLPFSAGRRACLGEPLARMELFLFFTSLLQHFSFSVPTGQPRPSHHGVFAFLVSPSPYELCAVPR
Another data set deals with CYP2E1 (Homo sapiens, UniProt P05181). Briefly: Inhibition of human CYP2E1 at 1 uM using luciferin-ME as substrate by enzyme bag based one point inhibition assay relative to control. The format is ADME. The settings on record: enzyme bags, probe luciferin-ME.
Sequence of CYP2E1 (P05181 whole entry): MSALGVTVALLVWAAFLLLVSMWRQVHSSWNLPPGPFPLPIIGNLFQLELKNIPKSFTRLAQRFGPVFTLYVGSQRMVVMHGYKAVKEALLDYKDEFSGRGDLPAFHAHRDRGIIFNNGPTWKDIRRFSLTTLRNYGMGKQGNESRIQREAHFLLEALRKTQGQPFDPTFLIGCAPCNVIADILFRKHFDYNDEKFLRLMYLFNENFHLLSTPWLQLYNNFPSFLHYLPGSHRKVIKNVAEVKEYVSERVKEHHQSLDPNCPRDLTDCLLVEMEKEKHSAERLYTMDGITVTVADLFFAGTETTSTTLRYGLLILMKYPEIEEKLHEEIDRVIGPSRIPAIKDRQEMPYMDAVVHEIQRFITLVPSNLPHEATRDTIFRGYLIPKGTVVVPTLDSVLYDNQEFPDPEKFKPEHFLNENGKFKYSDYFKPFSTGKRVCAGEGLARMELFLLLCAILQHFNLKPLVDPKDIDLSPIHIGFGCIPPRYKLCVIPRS
The target of another data set is CYP3A4 (Homo sapiens, UniProt P08684). Briefly: Inhibition of human CYP3A4 at 1 uM using luciferin-BE as substrate by enzyme bag based one point inhibition assay relative to control. The format is ADME. The settings on record: enzyme bags, probe luciferin-BE.
Sequence of CYP3A4 (P08684 whole entry): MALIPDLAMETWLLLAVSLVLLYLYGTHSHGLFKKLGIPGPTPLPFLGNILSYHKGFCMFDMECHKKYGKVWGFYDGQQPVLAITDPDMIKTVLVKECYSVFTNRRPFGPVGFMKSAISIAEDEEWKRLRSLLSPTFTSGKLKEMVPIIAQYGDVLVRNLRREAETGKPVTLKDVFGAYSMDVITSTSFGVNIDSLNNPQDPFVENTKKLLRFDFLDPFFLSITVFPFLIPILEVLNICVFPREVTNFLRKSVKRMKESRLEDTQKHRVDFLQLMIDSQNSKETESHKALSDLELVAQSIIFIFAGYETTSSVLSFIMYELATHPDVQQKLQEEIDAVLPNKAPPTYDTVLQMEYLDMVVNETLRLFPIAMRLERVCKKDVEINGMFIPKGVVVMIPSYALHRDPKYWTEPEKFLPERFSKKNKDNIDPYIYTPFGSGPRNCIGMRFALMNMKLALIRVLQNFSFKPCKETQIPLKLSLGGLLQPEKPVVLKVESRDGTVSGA

What is called inhibition is the relative decrease from the control value, in per cent. Regarding `CC1CCN(C(=O)c2cccc(OCC(=O)O)c2)CC1n1ccnc1` (stereo unspecified), the inhibition at 0.1 µM against Cytochrome P450 4Z1 [1] turned out to be 13%. In addition, the inhibition at 1 µM against Cytochrome P450 4Z1 [2] came to 22%.
As to `Cn1cnc2cc(C(=O)Nc3ccc(Oc4nn[nH]n4)cc3)ccc21`, the inhibition at 0.1 µM at Cytochrome P450 4Z1 [1] was 5%. Further, the inhibition at 1 µM at Cytochrome P450 4Z1 [2] is 10%.
For the compound `O=C(O)/C=C/c1ccc(Cn2ccnc2)cc1` [OZAGREL], the inhibition at 0.1 µM on Cytochrome P450 4Z1 [1] came to 21%. In addition, the inhibition at 1 µM at Cytochrome P450 4Z1 [2] came to 24%.
The term IC50 denotes the concentration that inhibits the measured activity by half. On to `c1ccc(Cn2ccnc2)cc1`, for which, at Cytochrome P450 4Z1 [1], the inhibition at 0.1 µM came out at 9%. Besides, at Cytochrome P450 4Z1 [2], the inhibition at 1 µM stood at 0%. For the same compound, the figures for the 50% inhibitory concentration (IC50) against Cytochrome P450 4Z1 [3] and on Cytochrome P450 4Z1 [4] were 6.7 µM and 5.9 µM, respectively.
In the case of `O=C(O)c1cccc(CNC(=O)c2ccc(-n3ccnc3)cc2)c1`, at Cytochrome P450 4Z1 [1], the inhibition at 0.1 µM is 36%. Also, the inhibition at 1 µM was 82% against Cytochrome P450 4Z1 [2]; 2.7% against CYP1A2; -0.2% on CYP2C9; 1.4% against CYP2C19; -5.8% at CYP2D6; 54% at CYP2E1. In addition, at CYP3A4, the inhibition at 1 µM amounted to 12%. This compound displayed an IC50 against Cytochrome P450 4Z1 [3] of 0.063 µM.
In the case of `O=C(O)CCC1CCCN(C(=O)c2ccc(Cn3ccnc3)cc2)C1` (stereo unspecified), the inhibition at 0.1 µM on Cytochrome P450 4Z1 [1] worked out at 1%. The inhibition at 1 µM against Cytochrome P450 4Z1 [2] came to 12%.
